In assay [1] the test system is JEV T1P1. The assay is described as follows: Cytopathic effect test, JEV T1P1-infected TE671 cells. In kind it is cell-based, Japanese encephalitis virus. The protocol: (§1) BHK-21 cells and/or TE671cells were separately cultured in a 24-well culture plate, with an initial density of 3×10^4 per well, and with 1 ml of 2% FBS-containing MEM medium per well. The cells were incubated in an incubator (37° C., 5% CO2) overnight, and the medium was removed until the cells adhered to the plate. Then, fresh 2% FBS-containing MEM medium was simultaneously added into each well of the culture plate. The cells were infected with a JEV T1P1 virus strain, wherein the amount of JEV T1P1 used to infect BHK-21 cells was a multiplicity of infection (M.O.I.)=0.1, and the amount of JEV T1P1 used to infect TE671 cells was M.O.I.=0.05. Different concentrations of compound 1 (final concentrations were 0, 2.5, 25 and 125 μM, respectively) were added into different wells. The culture plate was placed into an incubator (37° C., 5% CO2) and maintained therein.
When BHK-21 cells were infected with JEV T1P1 virus strain for 48 and 72 hours as indicated in the above experiment (1), the cytopathic effect was observed by photography, while the cytopathic effect of TE671 cells was observed by photography when TE671 cells were infected with the JEV T1P1 virus strain for 36 and 48 hours. In addition, 200 μl culture medium supernatant of both cells was collected from each time point (i.e., 48 and 72 hours), thereby, providing the use for a viral plaque test in Example 4.

For assay [2], the system named is EV71. Nature of the assay: Enterovirus replication, plaque test in RD cells. As to conditions: Enterovirus A, 36 h, read-out: inhibitory rate of EV 71 replication. In kind it is cell-based, enterovirus type 71. As for the experimental part: The RD cells were cultured in a 24-well culture plate with an initial density of 3×10^4 per well, as well as with 1 ml of 2% FBS-containing MEM medium per well. The cells were incubated in an incubator (37° C., 5% CO2) overnight. The medium was removed, and then, 1 ml of fresh 2% FBS-containing MEM medium was simultaneously added into each well. The RD cells were infected with an EV71 virus strain (M.O.I.=0.1). Different concentrations of compound 1 (final concentrations were 0, 2.5, 25 and 125 μM) were added into different wells respectively. RD cells were incubated in an incubator (37° C., 5% CO2) for 36 hours, and then the viral medium was collected for the following plaque test.
The RD cells were cultured in a 6-well culture plate, and incubated in an incubator (37° C., 5% CO2) overnight. The medium was removed, and then 200 μl of the above 10^4 times diluted viral medium was added into each well. The cells were infected for 1 hour. Then, 3 ml of a 3% agarose covering solution was added into each well. The cells were incubated in an incubator (37° C., 5% CO2) for 3 days. The covering solution was removed. Methyl blue was added into each well, and the plate was placed at room temperature overnight, and then washed with clear water, and dried. The number of plaques was counted to calculate the virus titer and inhibitory rate.

A further assay has as its system DEN2. The assay is described as follows: Dengue virus infection-induced cytopathic effect in BHK-21 cells. It counts as cell-based, dengue virus type 2. As to conditions: infected 72 hours, M.O.I.=0.1, compound 25 μM. The protocol: BHK-21 cells were cultured in a 24-well culture plate at an initial density of 3×10^4 per well with 1 ml of 2% FBS-containing MEM medium per well. The cells were incubated in an incubator (37° C., 5% CO2) overnight, and the medium was removed until the cells adhered to the plate. Then, 1 ml of fresh 2% FBS-containing MEM medium was simultaneously added into each well of the culture plate; the cells were infected with the DEN2 virus strain (M.O.I.=0.1); different concentrations of compound 1 (the final concentrations were 0, 2.5 and 25 μM, respectively) were added into different wells. BHK-21 cells were incubated in an incubator (37° C., 5% CO2) for 72 hours, and then their morphology was observed by photography.

The subject of assay [3] is JEV T1P1. The assay is described as follows: Apoptosis test (Annexin V/PI flow cytometry), JEV T1P1-infected TE671 cells. In kind it is cell-based, Japanese encephalitis virus. As to conditions: JEV T1P1 infection 36 hours, compound 125 μM; infected without compound 20.1%. As for the experimental part:
as §1
(§2) BHK-21 cells and TE 671 cells were washed with PBS after being infected with the JEV T1P1 virus strain for 36 hours in the above experiment (1). Then, PBS was removed. Trypsin-EDTA (150 μl) was added into each well. The cells were incubated in an incubator at 37° C. for 3 minutes. Then, 1 ml MEM medium was added into each well to neutralize EDTA. […] The cells were maintained in the dark for 5 to 10 minutes, and then analyzed by flow cytomerty.

Assay [4] relates to JEV T1P1. The assay is described as follows: Apoptosis test (Annexin V/PI flow cytometry), JEV T1P1-infected BHK-21 cells. In kind it is cell-based, Japanese encephalitis virus. As to conditions: JEV T1P1 infection 36 hours; infected without compound 59.05%. As for the experimental part:
as §1, §2

The test system of assay [5] is EV71. The assay is described as follows: Enterovirus infection-induced cytopathic effect in RD cells. In kind it is cell-based, enterovirus type 71. As to conditions: infected 36 hours, M.O.I.=0.1, compound 125 μM. The protocol:
RD cells were cultured in a 24-well culture plate at an initial density of 3×10^4 per well with 1 ml of 2% FBS-containing MEM medium per well. The cells were incubated in an incubator (37° C., 5% CO2) overnight. The medium was removed, and then 1 ml of fresh 2% FBS-containing MEM medium was simultaneously added into each well. The RD cells were infected with EV71 virus strain (M.O.I.=0.1). Different concentrations of compound 1 (final concentrations were 0, 2.5, 25 and 125 μM) were added into different wells. The RD cells were incubated in an incubator (37° C., 5% CO2) for 36 hours, and then their morphology was observed by photography.

We go through one molecule from patent US9205073B2, “Method for treating virus infection using derivative of aniline” (CHINA MEDICAL UNIVERSITY, priority 2014, dated 2015).

The structures appear in SMILES notation.

As for `CCOC(=O)C1=C(Nc2cc(C)cc(C)c2)OCC1=O` [Compound 1, ethyl 2-(3′,5′-dimethylanilino)-4-oxo-4,5-dihydrofuran-3-carboxylate], the “JEV T1P1-induced cytopathic effect” value in the assay on JEV T1P1 [1] (infected 36 hours, M.O.I.=0.05, compound 25 μM simultaneously) was “inhibited”. For the same molecule, in the assay with JEV T1P1 [1] (infected 48 hours, M.O.I.=0.05, compound 25 μM), the “JEV T1P1-induced cytopathic effect” value is on record as “inhibited”. In the assay on EV71 [2], the inhibition at 2.5 µM amounted to 4.6%, the inhibition at 25 µM came to 23% and the inhibition at 125 µM is 24.6%. The DEN2-induced cytopathic effect entry in the assay on DEN2 is “effectively inhibited”. In the assay on JEV T1P1 [3], the “ratio of TE671 cells getting into late apoptosis” value worked out at 4.7%. Besides, in the assay with JEV T1P1 [4], the “ratio of BHK-21 cells getting into late apoptosis” value is recorded as “reduced by compound 1 in a concentration dependent manner”. In addition, the EV71-induced cytopathic effect result with EV71 [5] was “effectively inhibited”.
